Where a name gives a salt, the structure may show the parent alone. Read-outs that look alike come from different tables or passages of the source.
Assays:
Bacillus subtilis = experiment: Gyrase MIC, microdilution broth method (Protocol 1); assay type: cell-based
N. asteroids = experiment: MIC determination procedure for Mycobacterium species (Protocol 4); assay type: cell-based; details: N. asteroids 2039
Bacteroides fragilis = experiment: Gyrase MIC, agar dilution method (Protocol 3); assay type: cell-based; details: 25 isolates tested
Streptococcus pneumoniae = experiment: Gyrase MIC, microdilution broth method (Protocol 1)
Pseudomonas aeruginosa = experiment: Gyrase MIC against Gram negatives, microdilution broth method (Protocol 2)
Enterobacter cloacae = experiment: as above; assay type: cell-based; details: 12 isolates tested
Aqueous solubility study = assay type: physicochemical; details: 96 h
Procedure: The aqueous solubilities of compound 23 and compound W were determined according to the following procedure.
Preparation of Samples. Aqueous samples of each compound were prepared as follows. Compounds were weighed (20-30 mg compound) in 4 ml clear vials prior to adding water (0.5 mL) and stirring by magnetic stirrer. 1.0N HCl was added to the suspension to adjust the pH to the desired range. After stirring for 96 hours at room temperature, the suspension was filtered through a 0.22 micron filter (Millipore, Ultrafree centrifugal filters, Durapore PVDF 0.22 μm, Cat# UFC30GVNB). The filtrate was collected and the pH measured with a pH meter.
Preparation of Standard Solutions. […]
Solubility Analysis. Aliquots of each sample and each standard solution were analyzed by HPLC analysis (Agilent 1100, injection volume 10 μL, wavelength 271 nm, column XTerra® Phenyl 5 μm, 4.6×50 mm, Part No. 186001144, mobile phase: A: 0.1% TFA in water 0.1% TFA in AcN). […] Standard curves were obtained by plotting the average of the peak area from the HPLC versus the concentrations of the standard solutions (with appropriate corrections of the weights of the standards based on total water content of the solid as determined by elemental analysis). The concentration of each sample was calculated from the peak area of the aqueous sample from the HPLC results and the slope and intercept of the standard curves. […]

S. aureus (ATCC 29213) = experiment: Mouse S. aureus kidney infection model; assay type: in vivo, CD-1 mice
Procedure: Animals: female CD-1 mice (8-10 weeks of age; 6/group), were obtained from Charles River Laboratories and were housed and maintained in accordance with the Guide to the Care and Use of Experimental Animals. Methicillin-sensitive S. aureus (MSSA) strain ATCC 29213 was obtained from the American Type Culture Collection. To prepare stocks for animal studies S. aureus was plated on Mueller Hinton Agar plates and incubated at 37° C. overnight. 3-4 colonies from the plate were used to inoculate 5 mL Mueller Hinton Broth (MHB) that was incubated for 8 hours at 37° C. with shaking at 300 RPM. The 5 mL 8-hour culture was diluted 20-fold into 100 mL and incubated overnight (12-14 hours). The bacteria were pelleted for 20 minutes at 3000× and washed twice with Phosphate-Buffered Saline (PBS) containing 0.5% Bovine Serum Albumin (BSA). Aliquots (1 mL) containing ˜1×10^10 cfu in PBS/20% Glycerol were frozen and stored at −80° C. until the day of use. Stock titers were confirmed by serial dilution and plating on Mueller Hinton agar plates. Prior to inoculation, bacterial stocks were thawed and washed once with PBS/BSA. The stocks were then diluted with PBS/BSA to a final concentration of 1×10^9 cfu/mL to give an inoculum of approximately 1-2×10^8 cfu per mouse in a volume of 100 uL. […] Injections were given intravenously via the tail vein using a sterile 30 gauge needle. Upon completion of the mouse infections, the bacterial stocks used to challenge the mice were plated and counted to verify the concentration of the inocula. […] Fisher Scientific). During collection and homogenization all of the samples were kept on ice and the homogenizer was washed thoroughly and sterilized between each sample. Homogenates were serially diluted in sterile PBS/BSA and plated on MH agar to determine bacterial counts per pair of kidneys. CD-1 mice (6/group) were challenged IV with S. aureus (ATCC 29213) at 2×10^8 cfu/mouse. […] The 30-minute and 6-hour treatment groups were treated once, while the 24-hour group received a second treatment 10 hours after the first dose. […] Burdens from pairs of kidneys for each mouse and the median for each group of mice were calculated. CD-1 mice (6/group) were challenged IV with S. aureus (ATCC 29213) at 2×10^8 cfu/mouse. After 2 hours a single group of mice (Early Control (EC)) was euthanized and the kidneys harvested, homogenized and plated to quantitate S. aureus burdens. The additional groups of infected mice were treated via oral gavage with Vehicle at 10 ml/kg (10% VitE TPGS; […] After 24 hours the groups of treated mice were euthanized and the kidneys harvested, homogenized and plated to quantitate S. aureus burdens. Burdens from pairs of kidneys for each mouse and the median for each group of mice were summarized. CD-1 mice (8/group) were challenged IV with S. aureus (ATCC 29213) at 2×10^8 cfu/mouse. After 2 hours a single group of mice (Early Control (EC)) was euthanized and the kidneys harvested, homogenized and plated to quantitate S. aureus burdens. The additional groups of infected mice were treated via oral gavage with Vehicle at 10 ml/kg (Water; […] After 24 hours the groups of treated mice were euthanized and the kidneys harvested, homogenized and plated to quantitate S. aureus burdens. Burdens from pairs of kidneys for each mouse and the median for each group of mice were summarized.

[1] = ATCC6051, Bacillus subtilis (168) ATCC 6051
[2] = ATCC6638, Bacillus subtilis ATCC 6638
[3] = 10 mg/kg oral gavage, second treatment 10 hours after first, 24 Hours
[4] = 10 mg/kg oral gavage, treated once, 6 Hours
[5] = 30 mg/kg oral gavage, second treatment 10 hours after first, 24 Hours
[6] = 30 mg/kg oral gavage, treated once, 6 Hours
[7] = 30 mg/kg oral gavage, treated once, 30 Minutes
[8] = 100 mg/kg oral gavage, second treatment 10 hours after first, 24 Hours
[9] = 100 mg/kg oral gavage, treated once, 6 Hours
[10] = 100 mg/kg oral gavage, treated once, 30 Minutes
[11] = single oral dose 10 mg/kg, after 24 hours
[12] = single oral dose 30 mg/kg, after 24 hours
[13] = single oral dose 60 mg/kg, after 24 hours
[14] = single oral dose 100 mg/kg, after 24 hours

With `CCNC(=O)Nc1nc2cc(-c3cnc(C(C)(C)O)nc3)cc([C@H]3CCCO3)c2[nH]1` [Compound 13, methanesulfonic acid salt of 1-ethyl-3-[5-[2-(1-hydroxy-1-methyl-ethyl)pyrimidin-5-yl]-7-[(2R)-tetrahydrofuran-2-yl]-1H-benzimidazol-2-yl]urea] the MIC (Bacillus subtilis; [1]) was over 8 µg/mL, the MIC (Bacillus subtilis; [2]) was over 8 µg/mL and the MIC (N. asteroids) was 8 µg/mL. For the same compound, the MIC90 (Bacteroides fragilis) was over 16 µg/mL, the MIC90 (Streptococcus pneumoniae) was 0.06 µg/mL and the “MIC Range” value (Streptococcus pneumoniae; 67 isolates tested, Protocol 1) was 0.015 to 0.06 µg/mL. For the same compound, the MIC (Streptococcus pneumoniae; ATCC10015) was 0.022 µg/mL, the MIC (Pseudomonas aeruginosa) was 0.33 µg/mL and the MIC90 (Pseudomonas aeruginosa) was over 8 µg/mL. The MIC (Pseudomonas aeruginosa; PAO1) was over 16 µg/mL and the MIC90 (Enterobacter cloacae) was over 8 µg/mL.

Work on `CCNC(=O)Nc1nc2cc(-c3cnc(C(C)(C)O)nc3)c(F)c([C@H]3CCCO3)c2[nH]1` [Compound 23, 1-ethyl-3-[6-fluoro-5-[2-(1-hydroxy-1-methyl-ethyl)pyrimidin-5-yl]-7-[(2R)-tetrahydrofuran-2-yl]-1H-benzimidazol-2-yl]urea] yielded a Solubility (Aqueous solubility study) of under 1 µg/mL.

In the case of `CCNC(=O)Nc1nc2cc(-c3cnc(C(C)(C)O)nc3)c(F)c([C@H]3CCCO3)c2[nH]1` [Compound 23A, methanesulfonic acid salt of 1-ethyl-3-[6-fluoro-5-[2-(1-hydroxy-1-methyl-ethyl)pyrimidin-5-yl]-7-[(2R)-tetrahydrofuran-2-yl]-1H-benzimidazol-2-yl]urea], the MIC (Bacillus subtilis; [1]) is reported as 4 µg/mL, the MIC (Bacillus subtilis; [2]) is reported as 2 µg/mL and the MIC (N. asteroids) is reported as 1 µg/mL. The MIC90 (Bacteroides fragilis) was 16 µg/mL, the “MIC Range” value (Bacteroides fragilis) was 1 to 16 µg/mL and the MIC (Pseudomonas aeruginosa) was 0.25 µg/mL. It also gave an MIC90 (Pseudomonas aeruginosa) of over 8 µg/mL, an MIC (Pseudomonas aeruginosa; PAO1) of over 16 µg/mL and an MIC90 (Enterobacter cloacae) of over 8 µg/mL. For the same compound, the “Median Kidney Burden (Log cfu/kidneys)” value (S. aureus (ATCC 29213); 10 mg/kg oral gavage 2 h post challenge, treated once, time of treatment 30 Minutes) was 4.84 Log cfu/kidneys, the “Log Difference vs. Vehicle Control” value (S. aureus (ATCC 29213); [3]) was −1.87 and the “Median Kidney Burden (Log cfu/kidneys)” value (S. aureus (ATCC 29213); [3]) was 4.48 Log cfu/kidneys. The “Log Difference vs. Vehicle Control” value (S. aureus (ATCC 29213); [4]) was −0.37, the “Median Kidney Burden (Log cfu/kidneys)” value (S. aureus (ATCC 29213); [4]) was 4.84 Log cfu/kidneys and the “Log Difference vs. Vehicle Control” value (S. aureus (ATCC 29213); 10 mg/kg oral gavage, treated once, 30 Minutes) was −0.14. For the same compound, the “Log Difference vs. Vehicle Control” value (S. aureus (ATCC 29213); [5]) was −2.90, the “Median Kidney Burden (Log cfu/kidneys)” value (S. aureus (ATCC 29213); [5]) was 3.44 Log cfu/kidneys and the “Log Difference vs. Vehicle Control” value (S. aureus (ATCC 29213); [6]) was −0.59. For the same compound, the “Median Kidney Burden (Log cfu/kidneys)” value (S. aureus (ATCC 29213); [6]) was 4.62 Log cfu/kidneys, the “Log Difference vs. Vehicle Control” value (S. aureus (ATCC 29213); [7]) was 0.00 and the “Median Kidney Burden (Log cfu/kidneys)” value (S. aureus (ATCC 29213); [7]) was 4.97 Log cfu/kidneys. The “Log Difference vs. Vehicle Control” value (S. aureus (ATCC 29213); [8]) was −2.86, the “Median Kidney Burden (Log cfu/kidneys)” value (S. aureus (ATCC 29213); [8]) was 3.49 Log cfu/kidneys and the “Log Difference vs. Vehicle Control” value (S. aureus (ATCC 29213); [9]) was −0.66. The “Median Kidney Burden (Log cfu/kidneys)” value (S. aureus (ATCC 29213); [9]) was 4.55 Log cfu/kidneys, the “Log Difference vs. Vehicle Control” value (S. aureus (ATCC 29213); [10]) was −0.08 and the “Median Kidney Burden (Log cfu/kidneys)” value (S. aureus (ATCC 29213); [10]) was 4.89 Log cfu/kidneys. For the same compound, the “kidney burden, compound- versus vehicle-treated mice” value (S. aureus (ATCC 29213); 30 minutes after the initial treatment, 10, 30, 100 mg/kg oral) was “no difference in kidney burden”, the “log reduction versus the 30 minute early control” value (S. aureus (ATCC 29213); 6 hours after the first dose, 30 and 100 mg/kg oral) was 0.3-0.4 log and the “reduction of bacterial burdens in the kidneys versus time-matched vehicle control” value (S. aureus (ATCC 29213); 6 hours after the first dose, all compound treatments (10, 30, 100 mg/kg oral)) was 0.4-0.6 logs. The “log reduction versus the 24-hour vehicle-treated control” value (S. aureus (ATCC 29213); 24 hours, 10 mg/kg BID oral) was 1.8 log, the “log reduction versus the 24-hour vehicle-treated control” value (S. aureus (ATCC 29213); 24 hours, 30 and 100 mg/kg BID oral) was 2.8-2.9 log and the “log reductions versus the 30-minute vehicle-treated control” value (S. aureus (ATCC 29213); 24 hours, 30 and 100 mg/kg oral) was “approximately 1.5 log”. The “Median Kidney Burden (Log cfu/kidneys)” value (S. aureus (ATCC 29213); single oral dose 10 mg/kg 2 h post challenge, after 24 hours) was 4.73 Log cfu/kidneys, the “Log Reduction vs. Early Control” value (S. aureus (ATCC 29213); [11]) was 0.00 and the “Log Reduction vs. Late Control” value (S. aureus (ATCC 29213); [11]) was −1.90. For the same compound, the “log reductions versus vehicle control” value (S. aureus (ATCC 29213); [11]) was 1.9 log, the “Log Reduction vs. Early Control” value (S. aureus (ATCC 29213); [12]) was −0.40 and the “Log Reduction vs. Late Control” value (S. aureus (ATCC 29213); [12]) was −2.31. The “Median Kidney Burden (Log cfu/kidneys)” value (S. aureus (ATCC 29213); [12]) was 4.32 Log cfu/kidneys, the “log reductions versus vehicle control” value (S. aureus (ATCC 29213); [12]) was 2.3 log and the “Log Reduction vs. Early Control” value (S. aureus (ATCC 29213); [13]) was −1.21. The “Log Reduction vs. Late Control” value (S. aureus (ATCC 29213); [13]) was −3.11, the “Median Kidney Burden (Log cfu/kidneys)” value (S. aureus (ATCC 29213); [13]) was 3.52 Log cfu/kidneys and the “log reductions versus vehicle control” value (S. aureus (ATCC 29213); [13]) was 3.1 log. For the same compound, the “Log Reduction vs. Early Control” value (S. aureus (ATCC 29213); [14]) was −1.42, the “Log Reduction vs. Late Control” value (S. aureus (ATCC 29213); [14]) was −3.32 and the “Median Kidney Burden (Log cfu/kidneys)” value (S. aureus (ATCC 29213); [14]) was 3.31 Log cfu/kidneys. The “log reductions versus vehicle control” value (S. aureus (ATCC 29213); [14]) was 3.3 log and the “reduction of bacterial burdens versus the early control” value (S. aureus (ATCC 29213); single oral doses of 60 and 100 mg/kg, after 24 hours) was 1.2-1.4 logs.

— US8481551B2, “Gyrase and topoisomerase IV inhibitors” (Vertex Pharmaceuticals Incorporated, priority 2011, dated 2013)
